Reference: paper PMC9911596 (Nature Communications, 2023)
Substitutions are numbered along the chain they refer to.

Assays:
[1] = biological target: T1, Vtc1/Vtc3/Vtc4 complex (VTC complex) (Saccharomyces cerevisiae, UniProt P47075+Q02725, P47075:Y22F/P47075:K26A/P47075:K133A); experiment: polyP synthesis, TBE-PAGE; format: biochemical; settings: activator; 15 mM ATP, 10 mM MgCl2, 1 mM MnCl2, 0.5 mM pyrophosphate, 27 °C, 4 h; SPX PBC mutant
T1 construct: full-length subunits co-expressed in Expi293F; Vtc1 C-terminal HA, Vtc3 N-terminal 3xFlag, Vtc4 C-terminal 2xStrep; detergent-purified; 3:1:1 pentamer; with Vacuolar transporter chaperone complex subunit 1
T1 sequence (P47075 1-721 Y22F/K26A/K133A): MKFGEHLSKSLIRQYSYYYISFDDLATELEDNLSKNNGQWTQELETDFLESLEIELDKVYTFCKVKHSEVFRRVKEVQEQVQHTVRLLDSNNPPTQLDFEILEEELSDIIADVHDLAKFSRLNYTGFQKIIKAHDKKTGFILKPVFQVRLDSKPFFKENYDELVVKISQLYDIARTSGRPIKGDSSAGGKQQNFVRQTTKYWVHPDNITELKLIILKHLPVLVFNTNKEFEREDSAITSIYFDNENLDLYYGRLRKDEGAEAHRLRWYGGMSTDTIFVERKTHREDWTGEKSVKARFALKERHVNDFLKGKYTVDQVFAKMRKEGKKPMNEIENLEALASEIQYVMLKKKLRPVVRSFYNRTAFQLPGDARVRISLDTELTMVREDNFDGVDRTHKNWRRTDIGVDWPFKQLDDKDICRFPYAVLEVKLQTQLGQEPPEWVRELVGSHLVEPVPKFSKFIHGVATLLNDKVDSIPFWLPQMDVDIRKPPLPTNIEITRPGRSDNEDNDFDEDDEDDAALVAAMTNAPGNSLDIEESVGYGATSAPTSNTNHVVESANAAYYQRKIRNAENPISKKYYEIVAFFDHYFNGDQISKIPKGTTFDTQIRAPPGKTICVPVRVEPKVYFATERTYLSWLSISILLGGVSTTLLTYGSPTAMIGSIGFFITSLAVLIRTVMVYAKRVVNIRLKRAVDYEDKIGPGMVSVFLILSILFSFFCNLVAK
T1 sequence (Q02725 1-835): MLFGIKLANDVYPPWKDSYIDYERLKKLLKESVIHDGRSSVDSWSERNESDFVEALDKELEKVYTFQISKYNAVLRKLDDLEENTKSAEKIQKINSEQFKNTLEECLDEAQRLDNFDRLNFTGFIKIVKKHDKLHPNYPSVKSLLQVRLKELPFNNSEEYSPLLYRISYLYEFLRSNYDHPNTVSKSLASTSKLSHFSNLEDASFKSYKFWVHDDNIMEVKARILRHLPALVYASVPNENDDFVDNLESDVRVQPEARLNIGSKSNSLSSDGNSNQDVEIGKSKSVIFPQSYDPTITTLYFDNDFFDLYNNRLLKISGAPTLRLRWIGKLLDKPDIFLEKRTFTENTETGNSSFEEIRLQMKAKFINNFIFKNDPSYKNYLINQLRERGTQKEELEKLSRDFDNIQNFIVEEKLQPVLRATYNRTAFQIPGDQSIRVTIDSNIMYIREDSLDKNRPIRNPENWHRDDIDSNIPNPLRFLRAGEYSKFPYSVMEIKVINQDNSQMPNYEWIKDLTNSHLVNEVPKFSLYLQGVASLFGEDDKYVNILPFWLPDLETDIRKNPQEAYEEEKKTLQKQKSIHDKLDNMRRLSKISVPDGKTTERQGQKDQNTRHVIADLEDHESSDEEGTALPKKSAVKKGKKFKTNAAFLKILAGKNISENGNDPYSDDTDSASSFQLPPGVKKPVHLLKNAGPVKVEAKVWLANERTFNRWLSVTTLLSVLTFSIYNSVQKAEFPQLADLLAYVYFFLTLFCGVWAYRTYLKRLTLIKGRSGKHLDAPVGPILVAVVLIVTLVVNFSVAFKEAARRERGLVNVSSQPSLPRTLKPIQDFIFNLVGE
T1 sequence (P40046 2-129 partner): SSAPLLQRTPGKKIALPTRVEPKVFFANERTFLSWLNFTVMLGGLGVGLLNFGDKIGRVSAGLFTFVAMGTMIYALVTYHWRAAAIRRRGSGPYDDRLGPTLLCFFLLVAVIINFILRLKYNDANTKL

[2] = biological target: T2, Vtc1/Vtc3/Vtc4 complex (VTC complex) (Saccharomyces cerevisiae, UniProt P47075+Q02725); experiment: polyP synthesis, TBE-PAGE and DAPI; smFRET; format: biochemical; settings: activator; 15 mM ATP, 10 mM MgCl2, 1 mM MnCl2, 0.5 mM pyrophosphate, ATP regeneration, 27 °C, 4 h; up to 10 mM InsP6; SPX domain of Vtc4 as sensor
T2 construct: full-length subunits co-expressed in Expi293F; Vtc1 C-terminal HA, Vtc3 N-terminal 3xFlag, Vtc4 C-terminal 2xStrep; detergent-purified; 3:1:1 pentamer; with Vacuolar transporter chaperone complex subunit 1
T2 sequence (P47075 1-721): T1 sequence (P47075 1-721 Y22F/K26A/K133A) with F22Y, A26K, A133K
T2 sequence (Q02725 1-835): T1 sequence (Q02725 1-835)
T2 sequence (P40046 2-129 partner): T1 sequence (P40046 2-129 partner)

Q: With O=P(O)(O)O[C@H]1[C@H](OP(=O)(O)O)[C@@H](OP(=O)(O)O)[C@H](OP(=O)(O)O)[C@@H](OP(=O)(O)O)[C@H]1OP(=O)(O)O [InsP6] as the compound, how does the “polyP synthesis, TBE-PAGE” value [1] read?
A: both reduced InsP6-stimulated polyP synthesis

Q: And the “polyP synthesis, TBE-PAGE and DAPI; smFRET” value [2]?
A: harbors polyP polymerase activity and that synthesizes polyP in an InsP6 dose-dependent manner
